Assay results from patent US6433188B1, “Fused heteroaromatic glucokinase activators” (priority 2000, dated 2002).

melting point [°C] | SMILES
115 to 118 | CS(=O)(=O)c1ccc(C(CC2CCCC2)C(=O)Nc2nc3ccccc3s2)cc1C#N (stereo not drawn) [Example 26, N-Benzothiazol-2-yl-2-(3-cyano-4-methanesulfonyl-phenyl)-3-cyclopentyl-propionamide]
108 to 112 | CS(=O)(=O)c1ccc(C(CC2CCCC2)C(=O)Nc2nc3ccccc3o2)cc1C#N (stereo not drawn) [Example 27, N-Benzoxazol-2-yl-2-(3-cyano-4-methanesulfonyl-phenyl)-3-cyclopentyl-propionamide]
148 to 152 | CS(=O)(=O)c1ccc(C(CC2CCCC2)C(=O)Nc2nc3ccccc3[nH]2)cc1C#N (stereo not drawn) [Example 28, N-(1H-Benzimidazol-2-yl)-2-(3-cyano-4-methanesulfonyl-phenyl)-3-cyclopentyl-propionamide]
95 to 99 | CS(=O)(=O)c1ccc(C(CC2CCCC2)C(=O)Nc2ccc3ccccc3n2)cc1C#N (stereo not drawn) [Example 29, 2-(3-Cyano-4-methanesulfonyl-phenyl)-3-cyclopentyl-N-quinolin-2-yl-propionamide]
90 to 95 | CS(=O)(=O)c1ccc(C(CC2CCCC2)C(=O)Nc2ccc3ccccc3n2)cc1C(F)(F)F (stereo not drawn) [Example 30, 3-Cyclopentyl-2-(4-methanesulfonyl-3-trifluoromethyl-phenyl)-N-quinolin-2-yl-propionamide]
105 to 110 | CS(=O)(=O)c1ccc(C(CC2CCCC2)C(=O)Nc2nc3ccccc3s2)cc1C(F)(F)F (stereo not drawn) [Example 31(A), N-Benzothiazol-2-yl-3-cyclopentyl-2-(4-methanesulfonyl-3-trifluoromethyl-phenyl)-propionamide]
108 to 113 | CS(=O)(=O)c1ccc(C(CC2CCCC2)C(=O)Nc2nc3ccccc3s2)cc1[N+](=O)[O-] (stereo not drawn) [Example 32, N-Benzothiazol-2-yl-3-cyclopentyl-2-(4-methanesulfonyl-3-nitro-phenyl)-propionamide]
106 to 111 | CS(=O)(=O)c1ccc(C(CC2CCCC2)C(=O)Nc2nc3ccccc3o2)cc1[N+](=O)[O-] (stereo not drawn) [Example 33, N-Benzoxazol-2-yl-3-cyclopentyl-2-(4-methanesulfonyl-3-nitro-phenyl)-propionamide]
113 to 117 | CS(=O)(=O)c1ccc(C(CC2CCCC2)C(=O)Nc2nc3ccccc3[nH]2)cc1[N+](=O)[O-] (stereo not drawn) [Example 34, N-(1H-Benzimidazol-2-yl)-3-cyclopentyl-2-(4-methanesulfonyl-3-nitro-phenyl)-propionamide]
102 to 106 | CS(=O)(=O)c1ccc(C(CC2CCCC2)C(=O)Nc2ccc3ccccc3n2)cc1[N+](=O)[O-] (stereo not drawn) [Example 35, 3-Cyclopentyl-2-(4-methanesulfonyl-3-nitro-phenyl)-N-quinolin-2-yl-propionamide]

Second part, the molecule before the results:

SMILES | melting point [°C]
O=C(Nc1nc2c(s1)CCCC2)C(CC1CCCC1)c1ccc(Cl)c(Cl)c1 (stereo not drawn) [Example 1, 3-Cyclopentyl-2-(3,4-dichloro-phenyl)-N-(4,5,6,7-tetrahydro-benzothiazol-2-yl)-propionamide] | 170 to 171
O=C(Nc1nc2ccccc2s1)C(CC1CCCC1)c1ccc(Cl)c(Cl)c1 (stereo not drawn) [Example 2, N-Benzothiazol-2-yl-3-cyclopentyl-2-(3,4-dichloro-phenyl)-propionamide] | 104 to 105
O=C(Nc1nc2ccc(F)cc2s1)C(CC1CCCC1)c1ccc(Cl)c(Cl)c1 (stereo not drawn) [Example 4, 3-Cyclopentyl-2-(3,4-dichloro-phenyl)-N-(6-fluoro-benzothiazol-2-yl)-propionamide] | 131 to 133
O=C(Nc1nc2ccccc2[nH]1)C(CC1CCCC1)c1ccc(Cl)c(Cl)c1 (stereo not drawn) [Example 8, N-(1H-Benzimidazol-2-yl)-3-cyclopentyl-2-(3,4-dichloro-phenyl)-propionamide] | 193.4 to 196.8
O=C(Nc1ccc2ccccc2n1)C(CC1CCCC1)c1ccc(Cl)c(Cl)c1 (stereo not drawn) [Example 10, 3-Cyclopentyl-2-(3,4-dichloro-phenyl)-N-quinolin-2-yl-propionamide] | 172 to 173
CS(=O)(=O)c1ccc(C(CC2CCCC2)C(=O)Nc2nc3ccccc3s2)cc1 (stereo not drawn) [Example 12(A), N-Benzothiazol-2-yl-3-cyclopentyl-2-(4-methanesulfonyl-phenyl)-propionamide] | 206 to 209
CS(=O)(=O)c1ccc([C@@H](CC2CCCC2)C(=O)Nc2nc3ccccc3[nH]2)cc1 [Example 13, N-(1H-Benzimidazol-2-yl)-3-cyclopentyl-2(R)-(4-methanesulfonyl-phenyl)-propionamide] | 230 to 232
CS(=O)(=O)c1ccc([C@@H](CC2CCCC2)C(=O)Nc2nc3ccccc3s2)cc1 [Example 14, N-Benzothiazol-2-yl-3-cyclopentyl-2(R)-(4-methanesulfonyl-phenyl)-propionamide] | 100 to 105
CS(=O)(=O)c1ccc([C@@H](CC2CCCC2)C(=O)Nc2nc3ccccc3[nH]2)cc1Cl [Example 21, N-(1H-Benzimidazol-2-yl)-2(R)-(3-chloro-4-methanesulfonyl-phenyl)-3-cyclopentyl-propionamide] | > 215
CS(=O)(=O)c1ccc(C(CC2CCCC2)C(=O)Nc2nc3ccccc3[nH]2)cc1Br (stereo not drawn) [Example 24(A), N-(1H-Benzimidazol-2-yl)-2-(3-bromo-4-methanesulfonyl-phenyl)-3-cyclopentyl-propionamide] | > 220
CS(=O)(=O)c1ccc(C(CC2CCCC2)C(=O)Nc2ccc3ccccc3n2)cc1Br (stereo not drawn) [Example 25, 2-(3-Bromo-4-methanesulfonyl-phenyl)-3-cyclopentyl-N-quinolin-2-yl-propionamide] | 95 to 100
